Consider 24 compounds from patent US8012961B2, “Tricyclic antibiotics” (Actelion Pharmaceutical Ltd., priority 2008, dated 2011).

The assay concerns M. catarrhalis A894. As to the kind of experiment: MIC determination by microdilution in cation-adjusted Mueller-Hinton Broth (NCCLS). Format: cell-based. The settings on record: pH of the test medium 7.2-7.3; for MIC: Moraxella catarrhalis, A894, microdilution method; for MIC M. catarrhalis A894: microdilution method. On the procedure:
These assays have been performed following the description given in “Methods for dilution Antimicrobial Susceptibility Tests for Bacteria that Grow Aerobically, 4th ed.; Approved standard: NCCLS Document M7-A4; National Committee for Clinical Laboratory Standards: Villanova, Pa., USA, 1997”. Minimal inhibitory concentrations (MICs; mg/l) were determined in cation-adjusted Mueller-Hinton Broth by a microdilution method following NCCLS guidelines (National Committee for Clinical Laboratory Standards. Methods for Dilution Antimicrobial Susceptibility). The pH of the test medium was 7.2-7.3. All Example compounds were tested against several Gram positive and Gram negative bacteria such as S. aureus, E. faecalis, S. pneumoniae, M. catarrhalis or E.coli.
Background: In broth dilution the organism is exposed to a series of concentrations in liquid medium.

≈ marks a conversion by molar mass, not a printed value. Bounds are passed on as bounds.

The compound `COc1ccc2ncc3c(c2n1)C(CN1CC[C@@H](CNCc2cc4c(cn2)OCCO4)C1)CO3` (mixture of isomers) [Example 12, (2,3-dihydro-[1,4]dioxino[2,3-c]pyridin-7-ylmethyl) -[(3S)-1-((1RS)-8-methoxy-1,2-dihydro-3-oxa-5,9-diaza-cyclopenta[a]naphthalen-1-ylmethyl)-pyrrolidin-3-ylmethyl]-amine] displayed an MIC of at most 0.031 µg/mL.
The same measure, in the same setting: for `COc1ccc2ncc3c(c2n1)C(CN1CC[C@@H](CNC/C=C/c2cc(F)ccc2F)C1)CO3` (mixture of isomers) [Example 13, [(E)-3-(2,5-difluoro-phenyl)-allyl]-[(3S)-1-((1RS)-8-methoxy-1,2-dihydro-3-oxa-5,9-diaza-cyclopenta[a]naphthalen-1-ylmethyl)-pyrrolidin-3-ylmethyl]-amine] the value was at most 0.031 µg/mL.
On the same count and under the same terms, for `COc1ccc2ncc3c(c2n1)C(CN1CC[C@@H](CNCc2ccc4c(n2)NC(=O)CS4)C1)CO3` (mixture of isomers) [Example 14, 6-({[(3S)-1-((1RS)-8-methoxy-1,2-dihydro-3-oxa-5,9-diaza-cyclopenta[a]naphthalen-1-ylmethyl)-pyrrolidin-3-ylmethyl]-amino}-methyl)-4H-pyrido[3,2-b][1,4]thiazin-3-one] the value was at most 0.031 µg/mL.
The same measure, in the same setting: for `COc1ccc2ncc3c(c2n1)C(CN1CCO[C@@H](CNCc2ccc4c(n2)NC(=O)CS4)C1)CO3` (mixture of isomers) [Example 25, 6-({[(2S)-4-((1RS)-8-methoxy-1,2-dihydro-3-oxa-5,9-diaza-cyclopenta[a]naphthalen-1-ylmethyl)-morpholin-2-ylmethyl]-amino}-methyl)-4H-pyrido[3,2-b][1,4]thiazin-3-one] the value was at most 0.031 µg/mL; for `COc1ccc2ncc3c(c2n1)C(CN1CCO[C@@H](CNCc2cc4c(cn2)OCCO4)C1)CO3` (mixture of isomers) [Example 26, (2,3-dihydro-[1,4]dioxino[2,3-c]pyridin-7-ylmethyl) -[(2S)-4-((1RS)-8-methoxy-1,2-dihydro-3-oxa-5,9-diaza-cyclopenta[a]naphthalen-1-ylmethyl)-morpholin-2-ylmethyl]-amine], at most 0.031 µg/mL; for `COc1ccc2ncc3c(c2n1)C(CN1CCC[C@@H](CNCc2ccc4c(n2)NC(=O)CS4)C1)CO3` (mixture of isomers) [Example 28, 6-({[(3S)-1-((1RS)-8-methoxy-1,2-dihydro-3-oxa-5,9-diaza-cyclopenta[a]naphthalen-1-ylmethyl)-piperidin-3-ylmethyl]-amino}-methyl)-4H-pyrido[3,2-b][1,4]thiazin-3-one], at most 0.031 µg/mL.
`COc1ccc2ncc3c(c2n1)C(CN1CCC[C@@H](CNCc2ccc4c(c2)NC(=O)CO4)C1)CO3` (mixture of isomers) [Example 31, 6-({[(3S)-1-((1RS)-8-methoxy-1,2-dihydro-3-oxa-5,9-diaza-cyclopenta[a]naphthalen-1-ylmethyl)-piperidin-3-ylmethyl]-amino}-methyl)-4H-benzo[1,4]oxazin-3-one]: the MIC was at most 0.031 µg/mL.
Same read-out and setting: the result for `COc1ccc2ncc3c(c2n1)C(CN1CCC[C@@H](CNCc2cc4c(nn2)OCCO4)C1)CO3` (mixture of isomers) [Example 39, (6,7-dihydro-[1,4]dioxino[2,3-c]pyridazin-3-ylmethyl)-[(3S)-1-((1RS)-8-methoxy-1,2-dihydro-3-oxa-5,9-diaza-cyclopenta[a]naphthalen-1-ylmethyl)-piperidin-3-ylmethyl]-amine] reads at most 0.031 µg/mL.
Same read-out and setting: for `COc1ccc2ccc3c(c2n1)C(CN1CCC(NC/C=C/c2cc(F)ccc2F)CC1)CO3` (racemic) [Example 1, rac-[(E)-3-(2,5-difluoro-phenyl)-allyl]-[1-(2-methoxy-8,9-dihydro-furo[2,3-h]quinolin-9-ylmethyl)-piperidin-4-yl]-amine] the value was at most 0.031 µg/mL; for `COc1ccc2ccc3c(c2n1)C(CN1CCC(NCc2cc4c(cn2)OCCO4)CC1)CO3` (racemic) [Example 2, rac-(2,3-dihydro-[1,4]dioxino[2,3-c]pyridin-7-ylmethyl)-[1-(2-methoxy-8,9-dihydro-furo[2,3-h]quinolin-9-ylmethyl)-piperidin-4-yl]-amine], at most 0.031 µg/mL.
As for `COc1ccc2ccc3c(c2n1)C(CN1CCC(NCc2cc4c(nn2)OCCO4)CC1)CO3` (racemic) [Example 3, rac-(6,7-dihydro-[1,4]dioxino[2,3-c]pyridazin-3-ylmethyl)-[1-(2-methoxy-8,9-dihydro-furo[2,3-h]quinolin-9-ylmethyl)-piperidin-4-yl]-amine], the MIC was at most 0.031 µg/mL.
Still for that read-out and setting: the result for `COc1ccc2ccc3c(c2n1)C(CN1CCC(NCc2ccc4c(n2)NC(=O)CS4)CC1)CO3` (racemic) [Example 4, rac-6-{[1-(2-methoxy-8,9-dihydro-furo[2,3-h]quinolin-9-ylmethyl) -piperidin-4-ylamino]-methyl}-4H-pyrido[3,2-b][1,4]thiazin-3-one] reads at most 0.031 µg/mL; that for `COc1ccc2ccc3c(c2n1)C(CN1CCC(NCc2ccc4c(n2)NC(=O)CO4)CC1)CO3` (racemic) [Example 5, rac-6-{[1-(2-methoxy-8,9-dihydro-furo[2,3-h]quinolin-9-ylmethyl) -piperidin-4-ylamino]-methyl}-4H-pyrido[3,2-b][1,4]oxazin-3-one], at most 0.031 µg/mL.
Same read-out and setting: for `COc1ccc2ncc3c(c2n1)C(CN1CCC(NCc2ccc4c(n2)NC(=O)CO4)CC1)CO3` (racemic) [Example 6, rac-6-{[1-(8-methoxy-1,2-dihydro-3-oxa-5,9-diaza-cyclopenta[a]naphthalen-1-ylmethyl)-piperidin-4-ylamino]-methyl}-4H-pyrido[3,2-b][1,4]oxazin-3-one] the value was at most 0.031 µg/mL.
For `COc1ccc2ncc3c(c2n1)C(CN1CCC(NCc2ccc4c(n2)NC(=O)CS4)CC1)CO3` (racemic) [Example 7, rac-6-{[1-(8-methoxy-1,2-dihydro-3-oxa-5,9-diaza-cyclopenta[a]naphthalen-1-ylmethyl)-piperidin-4-ylamino]-methyl}-4H-pyrido[3,2-b][1,4]thiazin-3-one], the MIC is at most 0.031 µg/mL.
Consider `COc1ccc2ncc3c(c2n1)C(CN1CCC(NCc2cc4c(nn2)OCCO4)CC1)CO3` (racemic) [Example 8, rac-(6,7-dihydro-[1,4]dioxino[2,3-c]pyridazin-3-ylmethyl)-[1-(8-methoxy-1,2-dihydro-3-oxa-5,9-diaza-cyclopenta[a]naphthalen-1-ylmethyl) -piperidin-4-yl]-amine], for which the MIC is at most 0.031 µg/mL.
Still for that read-out and setting: the result for `COc1ccc2ncc3c(c2n1)C(CN1CCC(NCc2cc4c(cn2)OCCO4)CC1)CO3` (racemic) [Example 9, rac-(2,3-dihydro-[1,4]dioxino[2,3-c]pyridin-7-ylmethyl)-[1-(8-methoxy-1,2-dihydro-3-oxa-5,9-diaza-cyclopenta[a]naphthalen-1-ylmethyl)-piperidin-4-yl]-amine] reads at most 0.031 µg/mL; that for `COc1ccc2ncc3c(c2n1)C(CN1CCC(NCc2ccc4c(c2)OCCO4)CC1)CO3` (racemic) [Example 10, rac-(2,3-dihydro-benzo[1,4]dioxin-6-ylmethyl)-[1-(8-methoxy-1,2-dihydro-3-oxa-5,9-diaza-cyclopenta[a]naphthalen-1-ylmethyl)-piperidin-4-yl]-amine], at most 0.031 µg/mL; that for `COc1ccc2ccc3c(c2n1)C(CN1CCC(NCc2ccc4c(n2)OCCO4)CC1)CO3` (racemic) [Example 11, rac-(2,3-dihydro-[1,4]dioxino[2,3-b]pyridin-6-ylmethyl)-[1-(2-methoxy-8,9-dihydro-furo[2,3-h]quinolin-9-ylmethyl)-piperidin-4-yl]-amine], 0.125 µg/mL (≈ 0.27 µM).
Same read-out and setting: the result for `COc1ccc2ccc3c(c2n1)C(CN1CCC(NCc2ccc4c(c2)NC(=O)CO4)CC1)CO3` (racemic) [Example 15, rac-6-{[1-(2-methoxy-8,9-dihydro-furo[2,3-h]quinolin-9-ylmethyl) -piperidin-4-ylamino]-methyl}-4H-benzo[1,4]oxazin-3-one] reads at most 0.031 µg/mL.
As to `COc1ccc2ncc3c(c2n1)C(CN1[C@@H]2CC[C@H]1C[C@H](NCc1cc4c(cn1)OCCO4)C2)CO3` (mixture of isomers) [Example 20, (2,3-dihydro-[1,4]dioxino[2,3-c]pyridin-7-ylmethyl) -[(3-exo)-8-((1RS)-8-methoxy-1,2-dihydro-3-oxa-5,9-diaza-cyclopenta[a]naphthalen-1-ylmethyl)-8-aza-bicyclo[3.2.1]oct-3-yl]-amine], the “MIC M. catarrhalis A894” value is listed as “≦0.031 mg/l”.
Turning to `COc1ccc2ncc3c(c2n1)C(CN1C2CCC1CC(NC/C=C/c1cc(F)ccc1F)C2)CO3` (racemic) [Example 21, [(E)-3-(2,5-difluoro-phenyl)-allyl]-[(3-exo)-8-((1RS)-8-methoxy-1,2-dihydro-3-oxa-5,9-diaza-cyclopenta[a]naphthalen-1-ylmethyl)-8-aza-bicyclo[3.2.1]oct-3-yl]-amine], the “MIC M. catarrhalis A894” value is listed as “≦0.031 mg/l”.
The same measure, in the same setting: the result for `COc1ccc2ncc3c(c2n1)C(CN1C2CCC1CC(NCc1ccc4c(n1)NC(=O)CO4)C2)CO3` (racemic) [Example 22, 6-{[(3-exo)-8-((1RS)-8-methoxy-1,2-dihydro-3-oxa-5,9-diaza-cyclopenta[a]naphthalen-1-ylmethyl)-8-aza-bicyclo[3.2.1]oct-3-ylamino]-methyl}-4H-pyrido[3,2-b][1,4]oxazin-3-one] reads “≦0.031 mg/l”; that for `COc1ccc2ncc3c(c2n1)C(CN1[C@@H]2CC[C@H]1C[C@H](NCc1ccc4c(n1)NC(=O)CS4)C2)CO3` (mixture of isomers) [Example 23, 6-{[(3-exo)-8-((1RS)-8-methoxy-1,2-dihydro-3-oxa-5,9-diaza-cyclopenta[a]naphthalen-1-ylmethyl)-8-aza-bicyclo[3.2.1]oct-3-ylamino]-methyl}-4H-pyrido[3,2-b][1,4]thiazin-3-one], “≦0.031 mg/l”.

One may read the MIC as the lowest concentration found to suppress growth. Read a low MIC as greater potency.
